Minimal effective concentration data for 40 compounds are collected here from patent US9200008B2 (ASKA PHARMACEUTICAL CO., LTD., priority 2010, dated 2015).

For the assay, the system named is Human prostate cancer cell lines (PC-3 cells). Briefly: Measurement of cell death-inducing activity (Test Example 1). Format: cell-based. To be noted: PC-3, 48 h, 48 hours after addition, tested at 10, 1, 0.1, 0.025 and 0.00625 μmol/L, qualitative evaluation of 10 fields, read-out: Concentration showing the cell death-inducing activity (cell death-inducing rate not less than 40%). Put shortly:
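Compound treatment lasted 48 h at 10 to 0.00625 μmol/L (five levels, DMSO as control) on PC-3 cells pre-cultured 48 h at 37 °C, 5% CO2 after seeding at 1×10^5 cells/well. A cell death-inducing rate of 40% or more counted as active.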
With `COc1cc(Cl)ccc1-c1nc(C)c(C(=O)NN(C)Cc2ccc(SC)cc2)s1` [Example 16-22], the minimal effective concentration came out at 1 µM. The figure for `COc1ccc(CN(C)NC(=O)c2sc(-c3ccc(Cl)cc3OC)nc2C)cc1C` [Example 16-23] is 1 µM; for `COc1ccc(CN(C)NC(=O)c2sc(-c3ccc(Cl)cc3OC)nc2C)cc1O` [Example 16-24] it is 0.1 µM. The figure for `COc1ccc(CN(C)NC(=O)c2sc(-c3ccc(Cl)cc3C)nc2C)cc1O` [Example 16-25] is 0.1 µM; for `Cc1cc(Cl)ccc1-c1nc(C)c(C(=O)NNCc2ccc3c(ccn3C)c2)s1` [Example 17-1] it is 0.1 µM. As for `Cc1cc(Cl)ccc1-c1nc(C)c(C(=O)NN(C)Cc2ccc3c(ccn3C)c2)s1` [Example 17-2], the figure is 0.025 µM; as for `COc1cc(Cl)ccc1-c1nc(C)c(C(=O)NNCc2cc(C)c(O)c(C)c2)s1` [Example 17-3, 2-(4-Chloro-2-methoxyphenyl)-4-methylthiazole-5-carboxylic acid N′-(4-hydroxy-3,5-dimethylbenzyl)hydrazide], 1 µM; as for `COc1cc(Cl)ccc1-c1nc(C)c(C(=O)NN(C)Cc2cc(C)c(O)c(C)c2)s1` [Example 17-4, 2-(4-Chloro-2-methoxyphenyl)-4-methylthiazole-5-carboxylic acid N′-(4-hydroxy-3,5-dimethylbenzyl)-N′-methyl hydrazide], 10 µM. As to `COc1ccc(CN(C)NC(=O)c2cc(-c3ccc(Cl)cc3OC)n[nH]2)cc1` [Example 18-1, 5-(4-Chloro-2-methoxyphenyl)-2H-pyrazole-3-carboxylic acid N′-(4-methoxybenzyl)-N′-methyl hydrazide], the minimal effective concentration stood at 1 µM. The figure for `CCN(Cc1ccc(OC)cc1)NC(=O)c1cc(-c2ccc(Cl)cc2OC)n[nH]1` [Example 18-2, 5-(4-Chloro-2-methoxyphenyl)-2H-pyrazole-3-carboxylic acid N′-ethyl-N′-(4-methoxybenzyl)hydrazide] is 1 µM. As to `COc1ccc(CN(C)NC(=O)c2cc(-c3ccc(Cl)cc3OC)ns2)cc1` [Example 19-1, 3-(4-Chloro-2-methoxyphenyl)isothiazole-5-carboxylic acid N′-(4-methoxybenzyl)-N′-methyl hydrazide], the minimal effective concentration was determined as 10 µM. As for `CCN(Cc1ccc(OC)cc1)NC(=O)c1cc(-c2ccc(Cl)cc2OC)ns1` [Example 19-2, 3-(4-Chloro-2-methoxyphenyl)isothiazole-5-carboxylic acid N′-(4-methoxybenzyl)-N′-ethyl hydrazide], the figure is 10 µM; as for `COc1ccc(CN(C)NC(=O)c2cc(-c3ccccc3OC)oc2C)cc1` [Example 20-1, 5-(2-Methoxyphenyl)-2-methylfuran-3-carboxylic acid N′-(4-methoxybenzyl)-N′-methyl hydrazide], 10 µM; as for `O=C(N/N=C/c1ccc(O)cc1Cl)c1cc(-c2ccc(Cl)cc2Cl)n[nH]1` [Example 21-8], 10 µM.

`Cc1cc(/C=N/NC(=O)c2cc(-c3ccc(Cl)cc3Cl)n[nH]2)cc(C)c1O` [Example 21-11]: the minimal effective concentration turned out to be 1 µM. The figure for `O=C(N/N=C/c1ccc(O)c(Cl)c1)c1cc(-c2ccc(Cl)cc2Cl)n[nH]1` [Example 21-13] is 10 µM; for `O=C(N/N=C/c1ccc([N+](=O)[O-])c(O)c1)c1cc(-c2ccc(Cl)cc2Cl)n[nH]1` [Example 21-15] it is 10 µM; for `O=C(N/N=C/c1ccc(O)c(F)c1)c1cc(-c2ccc(Cl)cc2Cl)n[nH]1` [Example 21-18] it is 10 µM. For the compound `Cc1cc(/C=N/NC(=O)c2cc(-c3ccc(Cl)cc3)n[nH]2)cc(C)c1O` [Example 21-21], the minimal effective concentration was determined as 1 µM. The figure for `COc1cc(Cl)ccc1-c1cc(C(=O)N/N=C/c2ccc3c(c2)ncn3C)n(C)n1` [Example 21-25] is 0.1 µM.

`COc1ccc(/C=N/NC(=O)c2cc(-c3ccccc3Cl)n[nH]2)cc1O` [Example 22-1, 5-(2-Chlorophenyl)-2H-pyrazole-3-carboxylic acid [1-(3-hydroxy-4-methoxyphenyl)methylidene]hydrazide]: the minimal effective concentration turned out to be 10 µM. The figure for `COc1ccc(/C=N/NC(=O)c2cc(-c3ccccc3C)n[nH]2)cc1O` [Example 22-3] is 1 µM. `COc1ccccc1-c1cc(C(=O)N/N=C/c2cc(C)c(O)c(C)c2)[nH]n1` [Example 22-6]: the minimal effective concentration amounted to 1 µM. The figure for `COc1ccc(/C=N/NC(=O)c2cc(-c3ccc(Cl)cc3OC)n[nH]2)cc1O` [Example 22-8] is 1 µM; for `COc1cc(Cl)ccc1-c1cc(C(=O)N/N=C/c2cc(C)c(O)c(C)c2)[nH]n1` [Example 22-9] it is 0.1 µM; for `COc1cc(Cl)ccc1-c1cc(C(=O)N/N=C/c2ccc3c(c2)ncn3C)[nH]n1` [Example 22-10] it is 0.1 µM. Take `COc1ccc(/C=N/NC(=O)c2sc(-c3ccc(Cl)cc3Cl)nc2C)cc1O` [Example 23-1, 2-(2,4-Dichlorophenyl)-4-methylthiazole-5-carboxylic acid[1-(3-hydroxy-4-methoxyphenyl)methylidene]hydrazide]: the minimal effective concentration was 10 µM. In the case of `COc1ccc(/C=N/NC(=O)c2sc(-c3ccccc3Cl)nc2C)cc1O` [Example 23-2], the minimal effective concentration is 0.1 µM. Regarding `COc1ccc(/C=N/NC(=O)c2sc(-c3ccccc3Cl)nc2C)c(Cl)c1O` [Example 23-4], the minimal effective concentration turned out to be 0.1 µM.

As to `COc1cc(/C=N/NC(=O)c2sc(-c3ccccc3Cl)nc2C)cc(O)c1OC` [Example 23-5], the minimal effective concentration stood at 10 µM.

Take `COc1ccc(/C=N/NC(=O)c2sc(-c3ccc(Cl)cc3)nc2C)cc1O` [Example 23-7]: the minimal effective concentration was 0.1 µM. The figure for `Cc1cc(/C=N/NC(=O)c2sc(-c3ccc(Cl)cc3)nc2C)cc(C)c1O` [Example 23-8] is 1 µM; for `Cc1cc(/C=N/NC(=O)c2sc(-c3ccc(Cl)cc3)nc2C)ccc1O` [Example 23-11] it is 10 µM. As for `COc1ccc(/C=N/NC(=O)c2sc(-c3ccccc3C)nc2C)cc1O` [Example 23-12], the figure is 0.1 µM; as for `COc1ccc(/C=N/NC(=O)c2sc(-c3ccccc3C(F)(F)F)nc2C)cc1O` [Example 23-13], 1 µM; as for `COc1ccc(/C=N/NC(=O)c2sc(-c3ccccc3OC)nc2C)cc1O` [Example 23-14], 0.1 µM. Regarding `COc1ccc(/C=N/NC(=O)c2sc(-c3cccc(Cl)c3Cl)nc2C)cc1O` [Example 23-15], the minimal effective concentration amounted to 0.1 µM.

As to `COc1ccc(/C=N/NC(=O)c2sc(-c3ccc(Cl)cc3)nc2C(F)(F)F)cc1O` [Example 23-18], the minimal effective concentration is 10 µM.

As for `Cc1cc(/C=N/NC(=O)c2sc(-c3ccc(Cl)cc3)nc2C(F)(F)F)cc(C)c1O` [Example 23-19], the minimal effective concentration is 10 µM. As for `COc1ccc(/C=N/NC(=O)c2sc(-c3ccc(Cl)cc3)nc2C(C)(C)C)cc1O` [Example 23-20], the figure is 10 µM.
